Legend:
Caco2 cells = assay: Intracellular 5-ALA levels and 13C-isotope labelling (LC-MS) in Caco2 cells; type: cell-based, human
Procedure: (§1) (A) Heme content in Caco2 cells treated with 5 mM 5-ALA (black bars and white bars) or with 5 mM 5-ALA+0.5 mM SA (light grey outlined bars) for the indicated time points. […] Values are expressed as relative fluorescence intensity. Data represent mean±SEM, n=2. For statistical analyses, a two-way analysis of variance was used, followed by the Bonferroni correction for multiple group comparisons; **=p<0.01, ***=p<0.001. 5-ALA, 5-aminolevulinic acid; SA, succinylacetone. (B) Intracellular 5-ALA levels. […] Values are expressed as peak area/μg proteins. Data represent mean±SEM of n=4 wells pooled from two independent experiments. For statistical analyses, an unpaired Student's t-test was used; **=p<0.01. 5-ALA, 5-aminolevulinic acid. (C, D) Accumulation of ^13C2-5-ALA in cells incubated with U-^13C-glucose (C) or of ^13C3-5-ALA in cells incubated with U-^13C-glutamine (D) for the indicated time. […] Values are expressed as peak area/μg proteins. Data represent mean±SEM of n=4 wells pooled from two independent experiments. For statistical analyses, a two-way analysis of variance was used, followed by the Bonferroni correction for multiple group comparisons; ***p<0.001. […] Transcript abundance, normalized to beta-actin mRNA expression, is expressed as a fold increase over a calibrator sample. […] Band intensities were measured by densitometry and normalized to vinculin expression. […]

ALAS1 = assay: qRT-PCR analysis of ALAS1 expression in C80 cells; type: cell-based, human; conditions: FLVCR1a-silenced vs scramble shRNA C80 cells
Procedure: as §1, with “proteins.” for “proteins. Data represent mean±SEM of n=4 wells pooled from two independent experiments. For statistical analyses, a two-way analysis of variance was used, followed by the Bonferroni correction for multiple group comparisons; ***p<0.001.”
RNA extraction and quantitative real-time PCR analyses were performed as described previously (Destefanis et al., 2019). […] Quantitative real-time PCR (qRT-PCR) was performed using the Universal Probe Library system (Roche, Basel, CH). […]

Substance: FLVCR1a shRNA: shRNA specifically down-regulating FLVCR1a without targeting FLVCR1b; pLKO.1 lentiviral clone TRCN0000059599, antisense SEQ ID No.: 2 (antisense TTGCTAATGATGCTGTACTGG; sense CCAGTACAGCATCATTAGCAA)
- Intracellular 5-ALA levels (Caco2 cells; FLVCR1a-silenced vs scramble shRNA Caco2 cells): lower amount of 5-ALA
- incorporation of labelled carbons in 5-ALA (Caco2 cells; U-13C-glucose or U-13C-glutamine, time course, FLVCR1a-silenced vs scramble): reduced incorporation of labelled carbons in 5-ALA
- ALAS1 expression (qRT-PCR) (ALAS1): reduced ALAS1 expression

Source: patent US20240285670A1, “THERAPEUTIC TREATMENT OF TUMORS BY BLOCKING THE HEME SYNTHESIS-EXPORT AXIS” (Università degli Studi di Torino, priority 2021, published 2024)
